Common to all, as to assay: Heterologous whole cell competition binding
What all share (details): heterologous competition of 125I-sCT(8-32), whole cells, mean ± S.E.M., SEM

One test deals with T1, hCTR G369A (Homo sapiens, UniProt P30988, G369A).
T1 construct: c-Myc (N); expressed in transfected cells
T1 sequence (P30988 25-474 G369A): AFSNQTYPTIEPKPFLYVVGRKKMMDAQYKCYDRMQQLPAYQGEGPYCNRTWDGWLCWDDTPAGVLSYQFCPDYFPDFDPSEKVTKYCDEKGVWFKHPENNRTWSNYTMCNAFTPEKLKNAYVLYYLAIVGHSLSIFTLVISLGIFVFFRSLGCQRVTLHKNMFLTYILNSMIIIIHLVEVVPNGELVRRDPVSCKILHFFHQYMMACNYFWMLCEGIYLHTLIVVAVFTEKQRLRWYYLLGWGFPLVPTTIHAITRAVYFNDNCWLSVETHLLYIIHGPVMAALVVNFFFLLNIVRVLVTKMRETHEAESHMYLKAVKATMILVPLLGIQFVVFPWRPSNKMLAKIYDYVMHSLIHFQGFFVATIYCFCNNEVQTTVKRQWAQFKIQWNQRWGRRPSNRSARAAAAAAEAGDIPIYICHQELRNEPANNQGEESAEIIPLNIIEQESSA
In short, it runs like this:
(§1)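 Intact cells carrying the mutant calcitonin receptor are co-incubated overnight with labelled tracer and unlabelled competitor. Non-bound ligand is then washed away and retained radioactivity measured by gamma counting; competition data are converted to pKi using Cheng-Prusoff.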

The target of the next test is T2, hCTR R281A (Homo sapiens, UniProt P30988, R281A).
T2 construct: expressed in transfected cells
T2 sequence (P30988 25-474 R281A): T1 sequence (P30988 25-474 G369A) with R257A, A345G
Put shortly:
as §1

For another test, the target named is T3, hCTR S364A (Homo sapiens, UniProt P30988, S364A).
T3 construct: c-Myc (N); expressed in transfected cells
T3 sequence (P30988 25-474 S364A): T1 sequence (P30988 25-474 G369A) with S340A, A345G
Put shortly: as §1

For another test, the target named is T4, hCTR V283A (Homo sapiens, UniProt P30988, V283A).
T4 construct: expressed in transfected cells
T4 sequence (P30988 25-474 V283A): T1 sequence (P30988 25-474 G369A) with V259A, A345G
In short, it runs like this: as §1

Another test concerns the target T5, hCTR Y299A (Homo sapiens, UniProt P30988, Y299A).
T5 construct: c-Myc (N); expressed in transfected cells
T5 sequence (P30988 25-474 Y299A): T1 sequence (P30988 25-474 G369A) with Y275A, A345G
In short, it runs like this: as §1

Results on one molecule are retold here after PMC5908784, “Extracellular loops 2 and 3 of the calcitonin receptor selectively modify agonist binding and efficacy” (Biochemical Pharmacology, 2018).

Molecules are shown by their SMILES. Residue numbers refer to the chain shown, from its start. Where a SMILES comes first, the peptide text is derived from it. Bridges are numbered along the chain shown (N, C = ends).

For `CSCC[C@H](NC(=O)CNC(=O)[C@H](CO)NC(=O)[C@H](Cc1ccccc1)NC(=O)[C@H](CCCNC(=N)N)NC(=O)[C@H](Cc1c[nH]cn1)NC(=O)[C@H](Cc1ccccc1)NC(=O)[C@H](CC(N)=O)NC(=O)[C@H](CC(N)=O)NC(=O)[C@H](CC(C)C)NC(=O)[C@H](CC(N)=O)NC(=O)[C@H](CCCNC(=N)N)NC(=O)[C@H](Cc1c[nH]c2ccccc12)NC(=O)[C@H](Cc1ccc(O)cc1)NC(=O)[C@H](C)NC(=O)[C@H](CO)NC(=O)[C@H](CC(C)C)NC(=O)[C@@H](NC(=O)[C@@H]1CSSC[C@H](N)C(=O)N[C@@H](CO)C(=O)N[C@@H](CC(N)=O)C(=O)N[C@@H](CC(C)C)C(=O)N[C@@H](CO)C(=O)N[C@@H]([C@@H](C)O)C(=O)N1)C(C)C)C(=O)NCC(=O)N[C@@H](Cc1ccccc1)C(=O)NCC(=O)N1CCC[C@H]1C(=O)N[C@@H](CCC(=O)O)C(=O)N[C@H](C(=O)N1CCC[C@H]1C(N)=O)[C@@H](C)O` [pCT] (H-CSNLSTCVLSAYWRNLNNFHRFSGMGFGPETP-NH2; disulfide 1-7), the inhibition constant (Ki) at hCTR G369A is 7.94 nM; at hCTR R281A, 66.1 nM; on hCTR S364A, 5.37 nM; at hCTR V283A, 15.1 nM; on hCTR Y299A, 46.8 nM.

The Ki is the equilibrium dissociation constant of an inhibitor or competing ligand from its target.
